Measured values: patent US6800674B2, “Anthraquinone compound and water-based ink-jet recording ink containing the compound” (Mitsui Chemicals, Inc., priority 2000, dated 2004)

What was measured:
Assay type in all cases: physicochemical
[1] = Solvent solubility of the coloring matter; settings: for solubility of the coloring matter (in words): ink produced as in Example 1
[2] = Evaluation of water resistance (OD1 after/before dipping in water); settings: aqueous ink, OD1 after dipping in water and air-drying
Procedure: (§1) Glycerin and water were added to the dispersion (A) of colored resin fine particles to obtain aqueous ink having a solid content of 15% by weight. This aqueous ink was used, and filled in an ink cartridge for a piezo-type ink jet printer, and printing and image recording were conducted with the same printer. The test was conducted on the following items.
(D) Evaluation of Water Resistance
With respect to a printed portion of a plain paper having a recorded image thereon for test, printing density (OD value) was measured with a reflection densitometer before dipping in water and after dipping in water and air-drying. Water resistance was evaluated upon comparing OD1.
OD1=(OD value after dipping in water and air-drying)/(OD value before dipping in water)×100[%]

[3] = Evaluation of emulsification (visual, in production of emulsion ink); settings: ink produced as in Example 1
Procedure: as §1
(A) Evaluation of Emulsification
The emulsification condition in the production of emulsion ink was visually observed, and evaluated.

[4] = Evaluation of light fastness (xenon fadeometer, OD2); settings: for E (Evaluation of light fastness): aqueous ink, ink production process Example 1, OD2 after 100 hours of irradiation
Procedure: as §1
(E) Evaluation of Light Fastness
Printing density (OD value) was measured using a xenon fadeometer (manufactured by Suga Shikenki) before irradiation and after 100 hours of irradiation. Light fastness was evaluated upon comparing OD2.
OD2=(OD value after irradiation)/(OD value before irradiation)×100[%]

[5] = Absorption in toluene solution
[6] = Evaluation of light fastness (xenon fadeometer, OD2); settings: aqueous ink, ink production process Example 2; OD2 after 100 hours of irradiation
[7] = ink production process Example 1
[8] = ink production process Example 2

With `O=C1c2ccccc2C(=O)c2c1ccc(O)c2O` [Comparative Example 1, reference compound] the “solubility of the coloring matter (in words)” value (“solubility … (in words)” for short) [1] was “low”, the “D (Evaluation of water resistance)” value [2, 7] was “X (OD value is less than 50%.)” and the “evaluation of emulsification (in words)” value [3] was “poor emulsification”. The “E (Evaluation of light fastness)” value [4] was “X (OD value is less than 50%.)”.

With `COc1cc(N)c2c(c1N)C(=O)c1ccccc1C2=O` [Comparative Example 2, reference compound] the “solubility … (in words)” value [1] was “low”, the “D (Evaluation of water resistance)” value [2, 7] was “Δ (OD value is 50 to less than 70%.)” and the “light fastness (in words)” value [4] was “extremely bad”. For the same compound, the “E (Evaluation of light fastness)” value [4] was “X (OD value is less than 50%.)”.

For `CNc1cccc2c1C(=O)c1ccccc1C2=O` [Comparative Example 3, reference compound], the “solubility … (in words)” value [1] was “low”, the “D (Evaluation of water resistance)” value [2, 7] was “◯ (OD value is 70 to less than 80%.)” and the “light fastness (in words)” value [4] was “extremely bad”. For the same compound, the “E (Evaluation of light fastness)” value [4] was “X (OD value is less than 50%.)”.

In the case of `CCCCN(CCCC)c1cccc(Oc2cc(O)c3c(c2N)C(=O)c2ccccc2C3=O)c1` [compound 9], the solubility in toluene ([1]; toluene, room temperature) is reported as no less than 40%, the “D (Evaluation of water resistance)” value [2, 7] is reported as “⊚⊚ (OD value is 90 to 100%.)” and the “D (Evaluation of water resistance)” value [2, 8] is reported as “⊚⊚ (OD value is 90 to 100%.)”. For the same compound, the “gram absorption coefficient (εg)” value [5] was 30,200 ml/g·cm, the “maximum absorption wavelength (λmax)” value [5] was 517 nm and the “E (Evaluation of light fastness)” value [4] was “⊚⊚ (OD value is 90 to 100%.)”. For the same compound, the “E (Evaluation of light fastness)” value [6] was “⊚⊚ (OD value is 90 to 100%.)”.

For `CCN(CC)c1cccc(Oc2cc(O)c3c(c2N)C(=O)c2cc(C)ccc2C3=O)c1` [compound 13], the “D (Evaluation of water resistance)” value [2, 7] was “⊚⊚ (OD value is 90 to 100%.)”, the “D (Evaluation of water resistance)” value [2, 8] was “⊚⊚ (OD value is 90 to 100%.)” and the “E (Evaluation of light fastness)” value [4] was “⊚⊚ (OD value is 90 to 100%.)”. For the same compound, the “E (Evaluation of light fastness)” value [6] was “⊚⊚ (OD value is 90 to 100%.)”.

For `CCCCN(CCCC)c1cccc(Oc2cc(O)c3c(c2N)C(=O)c2ccc(CC)cc2C3=O)c1` [compound 14], the “D (Evaluation of water resistance)” value [2, 7] was “⊚⊚ (OD value is 90 to 100%.)”, the “D (Evaluation of water resistance)” value [2, 8] was “⊚⊚ (OD value is 90 to 100%.)” and the “E (Evaluation of light fastness)” value [4] was “⊚⊚ (OD value is 90 to 100%.)”. For the same compound, the “E (Evaluation of light fastness)” value [6] was “⊚⊚ (OD value is 90 to 100%.)”.

For `CCc1ccc2c(c1)C(=O)c1c(O)cc(Oc3cccc(N(CC)CC)c3)c(N)c1C2=O` [compound 15], the “D (Evaluation of water resistance)” value [2, 7] was “⊚⊚ (OD value is 90 to 100%.)”, the “D (Evaluation of water resistance)” value [2, 8] was “⊚⊚ (OD value is 90 to 100%.)” and the “E (Evaluation of light fastness)” value [4] was “⊚ (OD value is 80 to less than 90%.)”. For the same compound, the “E (Evaluation of light fastness)” value [6] was “⊚ (OD value is 80 to less than 90%.)”.

With `CCN(CC)c1cccc(Oc2cc(O)c3c(c2N)C(=O)c2ccc(OC)cc2C3=O)c1` [compound 16] the “D (Evaluation of water resistance)” value [2, 7] was “⊚ (OD value is 80 to less than 90%.)”, the “D (Evaluation of water resistance)” value [2, 8] was “⊚ (OD value is 80 to less than 90%.)” and the “E (Evaluation of light fastness)” value [4] was “⊚ (OD value is 80 to less than 90%.)”. For the same compound, the “E (Evaluation of light fastness)” value [6] was “⊚ (OD value is 80 to less than 90%.)”.

With `CCCCCCN(CCCCCC)c1cccc(Oc2cc(O)c3c(c2N)C(=O)c2cccc(C)c2C3=O)c1` [compound 18] the “D (Evaluation of water resistance)” value [2, 7] was “⊚⊚ (OD value is 90 to 100%.)”, the “D (Evaluation of water resistance)” value [2, 8] was “⊚⊚ (OD value is 90 to 100%.)” and the “E (Evaluation of light fastness)” value [4] was “⊚⊚ (OD value is 90 to 100%.)”. For the same compound, the “E (Evaluation of light fastness)” value [6] was “⊚⊚ (OD value is 90 to 100%.)”.
